Read-outs that look alike come from different tables or passages of the source. Values belong to the compound of their own block, whether it stands above or below them.
Tests used:
[1] = Plasma stability in vitro, mouse plasma; details: CD-1 mice plasma, 2 μM, 37° C., in % (unit assumed)
Procedure: (§1) Experimental method: The tested compounds (2 μM) were added into mouse or human plasma, and incubated at 37° C. Samples were taken at 0, 10, 30, 60 and 120 min respectively. The reaction was stopped by adding a stop agent. The mixture was sufficient shaken, and centrifuged at 4000 rpm for 10 min at 4° C. The supernatant was taken. The concentrations of the tested compounds and their metabolite (H130) in the supernatant were measured by LC-MS/MS.

[2] = Plasma stability in vitro, human plasma; details: for Content of Tested Substance (n = 2): human plasma, 2 μM, 37° C., in % (unit assumed)
Procedure: as §1

[3] = Release of HNO (headspace gas chromatography of nitrous oxide); details: PBS pH 7.4, 37° C., argon, 90 min
Procedure: Experiment 2. Experimental study on the tested compounds for releasing HNO HNO rapidly dimerizes and dehydrates to produce nitrous oxide in aqueous solution. In the experiment of detecting HNO, gas chromatographic headspace analysis is generally used to determine the amount of the released nitrous oxide, thereby indirectly detect the level of releasing HNO of the compound.
Experimental procedure: Each of the tested compounds was prepared to 20 mg/mL of mother liquor with DMF. Prior to the start of the experiment, 50 μL of drug mother liquor was placed into a 20 mL headspace sample vial. The tested compound was diluted by adding 5 mL of PBS buffer with pH 7.4. The temperature of the resulting sample was kept at 37° C. under argon gas for 90 min. Then the top gas was extracted for gas chromatographic analysis of nitrous oxide by using Angeli's Salt as a positive compound in the experiment.

[4] = system: ApoA-I mRNA; assay: Regulation of ApoA-I mRNA in HepG2 cells (real-time PCR); assay type: cell-based; set-up: key: Active: When 100 μM of the tested compound allowed ApoA-I mRNA in HepG2 cells to increase more than 15%, then the test compound was known as an ApoA active compound; details: 100 μM, 48 h, relative to DMSO control
Procedure: Experiment 5. Regulation of the Tested Compounds on ApoA-I mRNA HepG2 cells were cultured for 24 h in a 24-well plate with 400 μl of MEM medium containing 0.5% (v/v) of fetal bovine serum. Then each of the tested compounds (100 μM) and the positive control RVX-208 (100 μM) were added. The cells were cultured for another 48 h. The medium was aspirated out. After washing with 200 μl of PBS, 85 μl of cell lysis solution was added into the cells in each well. The cells were incubated at room temperature for 5 to 10 min to be completely dissolved and detached. The mRNA was extracted from the cells with a kit. The extracted mRNA were used for a real-time fluorescence quantitative PCR detection with RNA Fluorescence (RiboGreen) Quantitation Assay Kit and ApoA-I mRNA Primer-Probe Mixture from the company of Applied Biosystems.
After obtaining the Ct values, the induction fold of each test compound relative to DMSO control was calculated. The induction fold was used to reflect the ability of regulating ApoA-I mRNA for the tested compounds. When 100 μM of the tested compound allowed ApoA-I mRNA in HepG2 cells to increase more than 15%, then the test compound was known as an ApoA active compound.

[5] = system: db/db mice; assay: Serum NO and heart eNOS in db/db mice after oral gavage; assay type: in vivo; details: blank = 100, oral gavage 150 mg/kg (isosorbide mononitrate 5 mg/kg), 1 h after administration (H101: 2 h)
Excerpt: Experimental method: 25 eight-week-old db/db mice (strain: BKS.Cg−+Leprdb/+leprdb/JclSlac; grade: SPF; gender: male; source: Shanghai SLAC Laboratory Animal Co., Ltd.) were selected. 3 of them were selected as the blank administration control. 2 mice were used as the positive drug control (isosorbide mononitrate). The remaining 20 mice were randomly divided into 5 groups, 4 mice per group, which are H101 administration group, H111 administration group, H116 administration group, H119 administration group, and H130 administration group. The tested compounds of the positive drug control group and each administration group were dissolved in DMSO. Then PEG400 was added. The mixture was shaken and mixed thoroughly. At last, 10% of HP-β-CD was added. The mixture was shaken and mixed thoroughly. The ratio of each solvent was DMSO: PEG400:10% of HP-β-CD=5:67.5:27.5. The administration group was administered by oral gavage at the dose of 150 mg/kg. The positive drug control group was administered at the dose of 5 mg/kg. The mice in the H101 administration group were sacrificed at 2 h after the administration. The mice in the remaining administration groups were sacrificed at 1 h after the administration. The blood was collected respectively into 1.5 mL centrifuge tube, standing at room temperature for more than 30 min, and then centrifuged (3000 rpm, 10 min). The supernatant serum was aspirated, and stored at −80° C. for testing. After the blood was collected, the heart was cut with the thoracic aorta. Three parts of the heart were weighed and placed into cryovials, rapidly frozen in liquid nitrogen, and cryopreserved at −80° C. for testing. The aorta and aortic arch were weighed, rapidly frozen in liquid nitrogen, and cryopreserved at −80° C. for testing. The content of NO in the serum of the […] mice was determined by a total NO test kit (Beyotime). The content of NOS in the heart of the mice was determined with an NOS test kit (Beyotime). The content of eNOS was calculated by the difference between the measured values before and after adding the eNOS inhibitor L-NAME (Beyotime).

[6] = 2 h
Procedure: as §1

[7] = rat, in vivo
Procedure: Experimental method: Intravenous injection solutions (the administration concentrations of the tested compounds were 1 mg/kg) and oral gastric perfusates (the administration concentrations of the test compounds were 5 mg/kg) of the test compounds were prepared, and intravenously and orally administered to three SD rats, respectively. The concentrations of the whole blood for H130 at 0.083 h, 0.25 h, 0.5 h, 1 h, 2 h, 4 h, 8 h, and 24 h after administration were determined by LC-MS/MS, respectively. The pharmacokinetic parameters were compared by a drug-time curve. Sample pretreatment: 150 μL of the whole blood to be tested was aspirated accurately. 600 μL of internal standard solution (diluted to 0.5 μg/mL with methanol) was added, sufficiently mixed by a vortex mixer, and centrifuged at 13000 r/min for 20 min at 4° C. 3 μL of the supernatant was taken into a sample vial.
Chromatographic conditions: C18 reversed-phase chromatographic column; gradient elution with mobile phase A: water/acetonitrile (v:v=95:5) with 0.025% of formic acid and 1 mM of ammonium acetate added thereto, and mobile phase B: acetonitrile/water (v:v=95:5) with 0.025% of formic acid and 1 mM of ammonium acetate added thereto.

[8] = system: apoE−/− mice; assay: apoE−/− mouse atherosclerosis model, high-fat diet 10 weeks; assay type: in vivo
Excerpt: Experimental method: 36 eight-week-old male apoE-/- mice were selected and randomly divided into a blank administration group, an […] administration group, an […] administration group, an […] administration group, an […] administration group, and an […] administration group, 6 mice per group. The mice in each group were fed with high-fat diet for 10 weeks. At the beginning of the high-fat feeding, the mice in each group were administrated. Each tested compound was intragastric administered at the dose of 150 mg/kg twice a day. The blank administration group was given corresponding dose of saline. […] After the blood was taken, the serum, heart, and aorta were isolated. The levels of total cholesterol (TC), high density lipoprotein cholesterol (HDL-C), and low density lipoprotein cholesterol (LDL-C) in the serum of the mice in each group were measured by automatic biochemical analyzer. The ApoA1 expression level was detected with an ApoA1 kit. The content of NO in the serum of the mice was determined with a total NO test kit (Beyotime). The NOS activities of the heart, aorta, and serum were determined with an NOS test kit (Beyotime). The content of eNOS was calculated by the difference between the measured values determined before and after adding eNOS inhibitor L-NAME (Beyotime).

[9] = system: C57BL/6 mice; assay: Serum NO level in C57 mice after oral gavage; assay type: in vivo; details: oral gavage 150 mg/kg (positive drug 5 mg/kg), FIG. 1
Excerpt: Experimental method: 60 eight-week-old C57BL/6 mice (level: SPF; gender: male; source: Shanghai SLAC Laboratory Animal Co., Ltd.) were selected. […] were selected as the blank control. 12 mice were used as the positive drug control (isosorbide mononitrate). 12 mice were used as […] administration group. The other 32 mice were randomly divided into 4 groups, 8 mice per group, which are […] administration group, […] administration group, […] administration group, and […] administration group, respectively. The tested compounds of the positive drug control group and each administration group were dissolved in DMSO and then PEG400 was added thereto. The mixture was shaken and mixed thoroughly. At last, 10% of HP-β-CD was added. The mixture was shaken and mixed thoroughly. The ratio of each solvent was DMSO: PEG400:10% of HP-β-CD=5:67.5:27.5. The administration groups were administered by oral gavage at the dose of 150 mg/kg. The positive drug control group was administered at the dose of 5 mg/kg. The mice in each group were sacrificed by inhaling excess CO2 at 10 min, 30 min, 60 min, 120 min, 180 min, and 240 min after administration. The blood was collected into a 1.5 mL centrifuge tube, standing at room temperature for more than 30 min, and then centrifuged (3000 rpm, 10 min). The supernatant serum was aspirated, and stored at -80° C. for testing. After the blood was collected, the heart was cut with the thoracic aorta. Three parts of the heart were weighed and placed into cryovials, rapidly frozen in liquid nitrogen, and cryopreserved at -80° C. for testing. The aorta and aortic arch were weighed, rapidly frozen in liquid nitrogen, and cryopreserved at -80° C. for testing. The content of NO in the serum of C57BL/6 mice was determined by using the total NO test kit (Beyotime).

[10] = Release of nitric oxide in vitro (Griess reagent, nitrite); details: 10^−4 mol/L tested substance, phosphate buffer pH 7.4, cysteine 5 mmol/L, 37° C., 1 h; as nitrite
Procedure: Experiment 1. Experimental Study on the Tested Compounds for Releasing Nitric Oxide in vitro
Experimental Procedure: • (1) Preparation of Griess Reagent: 4 g of aminobenzenesulfonamide, 0.2 g of N-naphthyl ethylene diamine hydrochloride, and 10 mL of 85% phosphoric acid solution were taken to form a solution, which is diluted to 100 mL with distilled water. • (2) Plotting of the standard curve: a serie of standard solution of 0.01, 0.03, 0.05, 0.07, 0.09, 0.2, 0.4 μg/mL of nitrite nitrogen was prepared, 10 mL of each was taken to sufficiently mix with 2.5 mL of Griess reagent, standing at room temperature for 10 min, and its absorbance value at the wavelength of 540 nm was measured. The standard curve was plotted based on the resulting data. • (3) Measuring the amount of the released NO of the tested drug: all of the tested substances were dissolved in dimethylsulfoxide (1 mL) firstly. Then phosphate buffer (pH 7.4) was slowly added dropwise, and shaken. The drug solution was diluted to 50 mL, allowing the buffer solution to contain excess cysteine (5 mmol/L), and the final concentration of the tested substances being 10^−4 mol/L; the solution was incubated at 37° C. 2 mL of the reaction solution was taken to mix with 500 μl of Griess reagent at 1 h respectively, standing at room temperature for 10 min. The absorbance value of the mixture at 540 nm was measured. Isosorbide mononitrate was used as a positive control, and H130 was used as a negative control. The amount of the released NO was represented by the amount of its oxidation product, nitrite (NO2^−).

[11] = blank administration group = 100, 150 mg/kg twice a day, 10 weeks
[12] = serum, high-fat diet 10 weeks, intragastric 150 mg/kg twice a day

- Content of Tested Substance (n = 2) ([1]; 0 min): 100.0
- Content of Tested Substance (n = 2) ([1]; 10 min): 0.5
- Content of Tested Substance (n = 2) ([1]; 30 min): 0.0
- Content of Tested Substance (n = 2) ([1]; 60 min): 0.0
- Content of Tested Substance (n = 2) ([1]; 120 min): 0.3
- Content of Tested Substance (n = 2) ([2]; 0 min): 100.0
- Content of Tested Substance (n = 2) ([2]; 10 min): 99.5
- Content of Tested Substance (n = 2) ([2]; 30 min): 88.7
- Content of Tested Substance (n = 2) ([2]; 60 min): 81.1
- Content of Tested Substance (n = 2) ([2]; 120 min): 75.8
- stability in human plasma ([2]; within 2 h): good stability
SMILES: COc1cc(OC)c2c(=O)[nH]c(-c3cc(C)c(OCCOC(=O)ONS(=O)(=O)c4ccc(C)o4)c(C)c3)nc2c1 [Compound H104, N-((2-(4-(5,7-dimethoxy-4-oxo-3,4-dihydroquinazolin-2-yl)-2,6-dimethylphenoxy)ethoxy)carbonyloxy)-5-methylfuran-2-sulfonamide]
- Molar Quantities of N2O/Sample [3]: 23.6%
- Upregulation of Apoa-I Mrna Level [4]: Active

- stability in human plasma [6]: good stability
- release of prototype compound H130 after administration [7]: can be rapidly released
- AUCRatio (Dosage Calibration) ([7]; iv, 1 mg/kg): 51.6%
- AUCRatio (Dosage Calibration) ([7]; po, 5 mg/kg): 45.3%
SMILES: COc1cc(OC)c2c(=O)[nH]c(-c3cc(C)c(OCCOC(=O)CCC(=O)ONS(=O)(=O)c4cccc(S(C)(=O)=O)c4)c(C)c3)nc2c1 [Compound H116]
- Heart eNOS [5]: 159%
- Serum NO [5]: 147%
- Molar Quantities of N2O/Sample [3]: 15.3%
- Upregulation of Apoa-I Mrna Level [4]: Active
- Aorta eNOS [8, 11]: 136%
- ApoA1 [8, 11]: 128%
- Heart eNOS [8, 11]: 148%
- Serum NO [8, 11]: 138%
- Serum eNOS [8, 11]: 123%
- HDL-C [8, 12]: 74 ± 11 mg/dL
- LDL-C [8, 12]: 315 ± 31 mg/dL
- TC [8, 12]: 1123 ± 73 mg/dL

SMILES: O=[N+]([O-])O[C@@H]1CO[C@H]2[C@@H]1OC[C@@H]2O [Isosorbide Mononitrate, Isosorbide mononitrate, reference compound]
- Heart eNOS [5]: 169%
- Serum NO [5]: 136%
- time after administration at which serum NO level rose to its maximum, then decreased [9]: 2 h
- Amount of Released No [10]: 3.31 µM

— patent US10456405B2, “Nitric oxide-releasing prodrug molecule of substituted quinazolines” (ZHEJIANG HUAHAI PHARMACEUTICAL CO., LTD, priority 2015, dated 2019)
